Laboratory results reported in US6504058B1 (priority 1997, dated 2003).

Experiments:
[1] = test system: Erysiphe graminis f. sp. tritici; assay: Test A: wheat powdery mildew, preventive spray on wheat seedlings, disease rating; assay type: in vivo, Erysiphe graminis f. sp. tritici (on wheat seedlings); settings: 200 ppm test suspension sprayed to run-off (equivalent to 500 g/ha) on wheat seedlings; 100 = 100% disease control, 0 = no control; # = significant activity
Text: (§1) Test compounds were first dissolved in acetone in an amount equal to 3% of the final volume and then suspended at a concentration of 200 ppm in purified water containing 250 ppm of the surfactant Trem® 014 (polyhydric alcohol esters). The resulting test suspensions were then used in the following test. Spraying these 200 ppm test suspensions to the point of run-off on the test plants is the equivalent of a rate of 500 g/ha.
The test suspension was sprayed to the point of run-off on wheat seedlings. The following day the seedlings were inoculated with a spore dust of Erysiphe graminis f. sp. tritici, (the causal agent of wheat powdery mildew) and incubated in a growth chamber at 20° C. for 7 days, after which disease ratings were made.
(§2) Results for Tests A-E are given in Table A. In the table, a rating of 100 indicates 100% disease control and a rating of 0 indicates no disease control (relative to the controls). A dash (-) indicates no test results. ND indicates disease control not determined due to phytotoxicity. # indicates significant activity.

Pyricularia oryzae = assay type: in vivo, Pyricularia oryzae (on rice seedlings); settings: 200 ppm test suspension sprayed to run-off (equivalent to 500 g/ha) on rice seedlings; 100 = 100% disease control, 0 = no control; # = significant activity
Botrytis cinerea = assay: Test E: gray mold, preventive spray on cucumber seedlings, disease rating; assay type: in vivo, Botrytis cinerea (on cucumber seedlings); settings: 200 ppm test suspension sprayed to run-off (equivalent to 500 g/ha) on cucumber seedlings; 100 = 100% disease control, 0 = no control; # = significant activity
Text: as §1
The test suspension was sprayed to the point of run-off on cucumber seedlings. The following day the seedlings were inoculated with a spore suspension of Botrytis cinerea (the causal agent of gray mold on many crops) and incubated in a saturated atmosphere at 20° C. for 48 h, and moved to a growth chamber at 20° C. for 5 days, after which disease ratings were made.
as §2

Phytophthora infestans = assay type: in vivo, Phytophthora infestans (on tomato seedlings); settings: 200 ppm test suspension sprayed to run-off (equivalent to 500 g/ha) on tomato seedlings; 100 = 100% disease control, 0 = no control; # = significant activity
Puccinia recondita = assay: Test B: wheat leaf rust, preventive spray on wheat seedlings, disease rating; assay type: in vivo, Puccinia recondita (on wheat seedlings); settings: 200 ppm test suspension sprayed to run-off (equivalent to 500 g/ha) on wheat seedlings; 100 = 100% disease control, 0 = no control; # = significant activity
Text: as §1
The test suspension was sprayed to the point of run-off on wheat seedlings. The following day the seedlings were inoculated with a spore suspension of Puccinia recondita (the causal agent of wheat leaf rust) and incubated in a saturated atmosphere at 20° C. for 24 h, and then moved to a growth chamber at 20° C. for 6 days, after which disease ratings were made.
as §2

Row | SMILES | Test A disease control rating (wheat powdery mildew) [1] | Test C disease control rating (rice blast) (Pyricularia oryzae) | Test E disease control rating (gray mold) (Botrytis cinerea) | Test D disease control rating (potato and tomato late blight) (Phytophthora infestans) | Test B disease control rating (wheat leaf rust) (Puccinia recondita)
1 | CC(COc1ccc(Cl)cc1C#N)NC(=O)C1(C)CC(C)(Cl)C1 (stereo not drawn) [compound 42] | 63% | 0 (a rating of 0 indicates no disease control (relative to the controls)) | 19% | 43% | 0 (a rating of 0 indicates no disease control (relative to the controls))
2 | CC(NC(=O)C1(C)CC(Cl)(CCl)C1)c1ccc2ccccc2c1 (stereo not drawn) [compound 63] | 0 (a rating of 0 indicates no disease control (relative to the controls)) | 53% | 0 (a rating of 0 indicates no disease control (relative to the controls)) | 37% | 0 (a rating of 0 indicates no disease control (relative to the controls))
3 | COc1cc(Br)ccc1C(C)NC(=O)C1(C)CC(C)(F)C1 (stereo not drawn) [compound 70] | 0 (a rating of 0 indicates no disease control (relative to the controls)) | 97# % | 19% | 20% | 0 (a rating of 0 indicates no disease control (relative to the controls))
4 | CC(COc1cc(Br)ccc1C#N)NC(=O)C1(C)CC(C)(Cl)C1 (stereo not drawn) [compound 47] | 97# % | 94# % | 0 (a rating of 0 indicates no disease control (relative to the controls)) | 26% | 25%
5 | CC(NC(=O)C1CC(C)(Cl)C1)c1ccc(Br)cc1 (stereo not drawn) [compound 10] | 74% | 53% | 0 (a rating of 0 indicates no disease control (relative to the controls)) | 42% | 0 (a rating of 0 indicates no disease control (relative to the controls))
6 | COc1cc(Br)ccc1C(C)NC(=O)C1(C)CC(C)(Cl)C1 (stereo not drawn) [compound 59] | 0 (a rating of 0 indicates no disease control (relative to the controls)) | 100# (a rating of 100 indicates 100% disease control) | 0 (a rating of 0 indicates no disease control (relative to the controls)) | 23% | 85# %
7 | CC(NC(=O)C1CC(C)(Cl)C1)c1ccc(Br)cc1 (stereo not drawn) [compound 11] | 57% | 53% | 0 (a rating of 0 indicates no disease control (relative to the controls)) | 60% | 0 (a rating of 0 indicates no disease control (relative to the controls))
8 | CC(COc1cc(F)ccc1C#N)NC(=O)C1(C)CC(C)(Cl)C1 (stereo not drawn) [compound 43] | 0 (a rating of 0 indicates no disease control (relative to the controls)) | 0 (a rating of 0 indicates no disease control (relative to the controls)) | 19% | 20% | 0 (a rating of 0 indicates no disease control (relative to the controls))
9 | CC(NC(=O)C1(C)CC(C)(Cl)C1)c1ccc2ccccc2c1 (stereo not drawn) [compound 23] | 0 (a rating of 0 indicates no disease control (relative to the controls)) | 97# % | 0 (a rating of 0 indicates no disease control (relative to the controls)) | 0 (a rating of 0 indicates no disease control (relative to the controls)) | 0 (a rating of 0 indicates no disease control (relative to the controls))
10 | CC(COc1cc(Br)ccc1C#N)NC(=O)C1(C)CC(C)(Cl)C1 (stereo not drawn) [compound 48] | 96# % | 99# % | 0 (a rating of 0 indicates no disease control (relative to the controls)) | 47% | 85# %
11 | CC(COc1cc(Cl)ccc1C#N)NC(=O)C1(C)CC(C)(Cl)C1 (stereo not drawn) [compound 46] | 63% | 91# % | 0 (a rating of 0 indicates no disease control (relative to the controls)) | 43% | 28%
12 | CC(COc1cc(F)ccc1Cl)NC(=O)C1(C)CC(C)(Br)C1 (stereo not drawn) [compound 55] | 83# % | 74% | 0 (a rating of 0 indicates no disease control (relative to the controls)) | 0 (a rating of 0 indicates no disease control (relative to the controls)) | 0 (a rating of 0 indicates no disease control (relative to the controls))
13 | CC(COc1cc(F)ccc1F)NC(=O)C1(C(F)(F)F)CC(C)(Cl)C1 (stereo not drawn) [compound 27] | 72% | 99# % | 0 (a rating of 0 indicates no disease control (relative to the controls)) | 14% | 0 (a rating of 0 indicates no disease control (relative to the controls))
14 | CC(NC(=O)C1CC(C)(Cl)C1)C(Oc1cc(F)ccc1C#N)c1ccccc1 (stereo not drawn) [compound 34] | 59% | 52% | 0 (a rating of 0 indicates no disease control (relative to the controls)) | 45% | 0 (a rating of 0 indicates no disease control (relative to the controls))
15 | COc1cc(Br)ccc1C(C)NC(=O)C1(C)CC(C)(Cl)C1 (stereo not drawn) [compound 60] | 0 (a rating of 0 indicates no disease control (relative to the controls)) | 100# (a rating of 100 indicates 100% disease control) | 0 (a rating of 0 indicates no disease control (relative to the controls)) | 23% | 0 (a rating of 0 indicates no disease control (relative to the controls))
16 | CC(COc1cc(Cl)ccc1F)NC(=O)C1(C)CC(C)(Cl)C1 (stereo not drawn) [compound 52] | 83# % | 100# (a rating of 100 indicates 100% disease control) | 0 (a rating of 0 indicates no disease control (relative to the controls)) | 0 (a rating of 0 indicates no disease control (relative to the controls)) | 0 (a rating of 0 indicates no disease control (relative to the controls))
17 | CC(NC(=O)C1(C)CC(Cl)(CCl)C1)c1ccc2ccccc2c1 (stereo not drawn) [compound 64] | 0 (a rating of 0 indicates no disease control (relative to the controls)) | 53% | 0 (a rating of 0 indicates no disease control (relative to the controls)) | 91# % | 0 (a rating of 0 indicates no disease control (relative to the controls))
18 | CC(COc1cc(F)ccc1Cl)NC(=O)C1(C)CC(C)(Cl)C1 (stereo not drawn) [compound 49] | 98# % | 100# (a rating of 100 indicates 100% disease control) | 0 (a rating of 0 indicates no disease control (relative to the controls)) | 0 (a rating of 0 indicates no disease control (relative to the controls)) | 0 (a rating of 0 indicates no disease control (relative to the controls))
